# Biological target: T1, CDK12 complexed with Cyclin K (Homo sapiens, UniProt Q9NYV4)
# T1 construct: GST (N)
# Assay: Alternative CDK Enzymatic Assays (HTRF, pre-incubation with compounds and 1 mM ATP), Example A2
# Assay type: biochemical
# Conditions: enzyme pre-incubated with compounds and 1 mM ATP for 60 minutes; reaction 120 minutes at 25° C.
# Method in brief: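 GST-tagged human CDK12 co-expressed with full-length Cyclin K (baculovirus), pre-incubated 60 min with compounds and 1 mM ATP; reaction started with 1 mM ATP and 50 nM ULight-4E-BP1 peptide, 120 min at 25 °C, pH 7.5 HEPES. EDTA-stopped, Eu-anti-phospho-4E-BP1 HTRF (665/620 nm); IC50 from 3- or 4-parameter fit vs DMSO/no-enzyme controls.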
# T1 sequence (Q9NYV4 whole entry): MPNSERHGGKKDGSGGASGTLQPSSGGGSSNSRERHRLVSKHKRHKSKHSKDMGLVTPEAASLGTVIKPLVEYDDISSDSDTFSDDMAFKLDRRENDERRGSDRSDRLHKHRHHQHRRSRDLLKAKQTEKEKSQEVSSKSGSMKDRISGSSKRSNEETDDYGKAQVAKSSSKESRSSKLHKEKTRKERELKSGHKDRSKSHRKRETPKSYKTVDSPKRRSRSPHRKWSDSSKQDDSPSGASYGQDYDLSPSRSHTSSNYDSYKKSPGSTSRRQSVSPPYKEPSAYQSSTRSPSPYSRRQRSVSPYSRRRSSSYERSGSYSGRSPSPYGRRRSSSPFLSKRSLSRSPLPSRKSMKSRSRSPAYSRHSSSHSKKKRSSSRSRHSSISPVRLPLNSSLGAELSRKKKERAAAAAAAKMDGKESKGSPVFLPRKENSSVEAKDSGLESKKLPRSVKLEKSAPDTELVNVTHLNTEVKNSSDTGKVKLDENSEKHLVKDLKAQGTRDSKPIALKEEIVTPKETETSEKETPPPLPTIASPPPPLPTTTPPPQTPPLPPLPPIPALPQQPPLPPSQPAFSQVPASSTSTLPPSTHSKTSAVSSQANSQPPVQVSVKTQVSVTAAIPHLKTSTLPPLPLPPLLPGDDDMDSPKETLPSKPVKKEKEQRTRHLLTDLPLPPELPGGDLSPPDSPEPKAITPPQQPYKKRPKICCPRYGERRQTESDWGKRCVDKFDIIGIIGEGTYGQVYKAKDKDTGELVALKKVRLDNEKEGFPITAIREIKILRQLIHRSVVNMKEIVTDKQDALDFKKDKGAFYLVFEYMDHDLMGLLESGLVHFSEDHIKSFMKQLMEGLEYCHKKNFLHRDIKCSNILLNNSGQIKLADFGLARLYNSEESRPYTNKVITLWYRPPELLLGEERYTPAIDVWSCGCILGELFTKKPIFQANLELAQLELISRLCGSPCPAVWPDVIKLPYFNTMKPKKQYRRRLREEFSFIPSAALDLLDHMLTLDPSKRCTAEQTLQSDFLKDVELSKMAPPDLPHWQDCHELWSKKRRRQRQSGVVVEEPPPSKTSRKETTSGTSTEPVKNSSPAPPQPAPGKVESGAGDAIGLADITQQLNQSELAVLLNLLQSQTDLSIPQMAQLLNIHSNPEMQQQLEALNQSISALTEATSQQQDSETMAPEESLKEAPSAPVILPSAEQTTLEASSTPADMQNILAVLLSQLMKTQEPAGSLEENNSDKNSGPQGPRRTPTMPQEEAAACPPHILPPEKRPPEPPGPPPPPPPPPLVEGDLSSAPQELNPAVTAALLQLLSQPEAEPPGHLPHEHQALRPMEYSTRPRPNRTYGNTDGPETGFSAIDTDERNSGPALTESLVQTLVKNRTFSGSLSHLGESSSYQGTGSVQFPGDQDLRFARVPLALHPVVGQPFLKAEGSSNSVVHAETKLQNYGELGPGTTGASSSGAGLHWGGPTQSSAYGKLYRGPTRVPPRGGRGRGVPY
# T1 sequence (O75909 whole entry partner): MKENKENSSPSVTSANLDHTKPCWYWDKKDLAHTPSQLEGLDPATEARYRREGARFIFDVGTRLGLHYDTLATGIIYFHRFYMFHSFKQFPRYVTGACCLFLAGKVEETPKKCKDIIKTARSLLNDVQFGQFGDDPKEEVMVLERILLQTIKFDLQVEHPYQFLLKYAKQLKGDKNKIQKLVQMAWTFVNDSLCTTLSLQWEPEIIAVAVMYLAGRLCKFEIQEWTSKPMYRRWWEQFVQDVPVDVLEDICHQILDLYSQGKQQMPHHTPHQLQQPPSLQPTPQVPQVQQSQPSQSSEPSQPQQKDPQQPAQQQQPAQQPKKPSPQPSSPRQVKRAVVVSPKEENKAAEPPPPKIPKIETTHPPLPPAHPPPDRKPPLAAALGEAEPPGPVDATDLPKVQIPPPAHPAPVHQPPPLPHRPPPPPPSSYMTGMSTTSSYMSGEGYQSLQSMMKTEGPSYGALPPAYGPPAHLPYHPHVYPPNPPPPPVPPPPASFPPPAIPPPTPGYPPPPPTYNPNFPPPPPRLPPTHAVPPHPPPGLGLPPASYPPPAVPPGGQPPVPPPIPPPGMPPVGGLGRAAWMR
row,Molecule,IC50
1,"C=CC(=O)Nc1ccc2c(nc(N3CCC[C@@H](Nc4ncc(C(F)(F)F)cn4)C3)n2C)c1C [Example 156, (R)—N-(1,4-Dimethyl-2-(3-((5-(trifluoromethyl)pyrimidin-2-yl)amino)piperidin-1-yl)-1H-benzo[d]imidazol-5-yl)acrylamide]",< 50 nM
2,"C=CC(=O)Nc1cc2nc(N3C[C@H](F)C[C@@H](Nc4ncc(C#N)c(N(C)C)n4)C3)n(C)c2cc1C [Example 157, N-(2-((3R,5R)-3-((5-Cyano-4-(dimethylamino)pyrimidin-2-yl)amino)-5-fluoropiperidin-1-yl)-1,6-dimethyl-1H-benzo[d]imidazol-5-yl)acrylamide]",50 to 500 nM
3,"C=CC(=O)Nc1cc2nc(N3C[C@H](F)C[C@@H](Nc4ncc(C#N)c(NC)n4)C3)n(C)c2cc1C [Example 158, N-(2-((3R,5R)-3-((5-Cyano-4-(methylamino)pyrimidin-2-yl)amino)-5-fluoropiperidin-1-yl)-1,6-dimethyl-1H-benzo[d]imidazol-5-yl)acrylamide]",< 50 nM
4,C=CC(=O)Nc1cc2nc(N3C[C@H](F)C[C@@H](Nc4ccc(C(F)(F)F)cn4)C3)n(C)c2cc1C [Example 159],50 to 500 nM
5,"C=CC(=O)Nc1cc2nc(N3C[C@H](F)C[C@@H](Nc4ncc(C(F)F)cn4)C3)n(C)c2cc1C [Example 160, N-(2-((3R,5R)-3-((5-(Difluoromethyl)pyrimidin-2-yl)amino)-5-fluoropiperidin-1-yl)-1,6-dimethyl-1H-benzo[d]imidazol-5-yl)acrylamide]",50 to 500 nM
6,"C=CC(=O)Nc1cc2nc(N3C[C@H](F)C[C@@H](Nc4ncc(C#N)c(CC)n4)C3)n(C)c2cc1C [Example 161, N-(2-((3R,5R)-3-((5-Cyano-4-ethylpyrimidin-2-yl)amino)-5-fluoropiperidin-1-yl)-1,6-dimethyl-1H-benzo[d]imidazol-5-yl)acrylamide]",< 50 nM
7,"C=CC(=O)Nc1cc2nc(N3C[C@H](F)C[C@@H](Nc4ncc(C#N)s4)C3)n(C)c2cc1C [Example 162, N-(2-((3R,5R)-3-((5-Cyanothiazol-2-yl)amino)-5-fluoropiperidin-1-yl)-1,6-dimethyl-1H-benzo[d]imidazol-5-yl)acrylamide]",50 to 500 nM
8,"C=CC(=O)Nc1cc2nc(N3C[C@H](F)C[C@@H](Nc4ccc(C#N)cn4)C3)n(C)c2cc1C [Example 163, N-(2-((3R,5R)-3-((5-Cyanopyridin-2-yl)amino)-5-fluoropiperidin-1-yl)-1,6-dimethyl-1H-benzo[d]imidazol-5-yl)acrylamide]",50 to 500 nM
9,"C=CC(=O)Nc1cc2nc(N3C[C@H](F)C[C@@H](Nc4ncc(C#N)c(C)n4)C3)n(C)c2cc1C [Example 164, N-(2-((3R,5R)-3-((5-Cyano-4-methylpyrimidin-2-yl)amino)-5-fluoropiperidin-1-yl)-1,6-dimethyl-1H-benzo[d]imidazol-5-yl)acrylamide]",50 to 500 nM
10,"C=CC(=O)N(c1ccc2c(c1)nc(N1CCC[C@@H](Nc3ncc(C(F)(F)F)cn3)C1)n2C)C1CCOC1 (stereo partly drawn) [Example 165, N-(1-Methyl-2-((R)-3-((5-(trifluoromethyl)pyrimidin-2-yl)amino)piperidin-1-yl)-1H-benzo[d]imidazol-5-yl)-N-(tetrahydrofuran-3-yl)acrylamide]",< 50 nM
11,"C=CC(=O)Nc1cc2nc(N3CCC[C@@H](Nc4ncc(C(F)(F)F)cn4)C3)n(C)c2cc1OC [Example 166, (R)—N-(6-Methoxy-1-methyl-2-(3-((5-(trifluoromethyl)pyrimidin-2-yl)amino)piperidin-1-yl)-1H-benzo[d]imidazol-5-yl)acrylamide]",< 50 nM
12,"N-(2-((3R,5R)-3-Hydroxy-5-((5-(trifluoromethyl)pyrimidin-2-yl)amino)piperi-dine-1-yl)-1,6-dimethyl-1H-benzo[d]imidazol-5-yl)acrylamide [Example 94]",50 to 500 nM

# Source: patent US12643881B2, “Bicyclic amine CDK12 inhibitors” (Incyte Corporation, priority 2021, dated 2026)
